Assay results from US12171748B2, “Nitroimidazole formulations” (priority 2018, dated 2024).
Counter-ions that a name gives are not always drawn.

Legend:
[1] = cited from earlier work; for solubility in hot/boiling ethanol: hot or boiling ethanol; for solubility in hot/boiling water: hot or boiling water
[2] = cited from earlier work
[3] = system: ribotype 027 C. difficile strain (M7404); experiment: In vivo mouse trial; parameters: species or system C57BL6/J mice
Description: Groups of five, six week old, male, C57BL6/J mice were pre-treated with an antibiotic cocktail in the drinking water containing kanamycin (0.4 mg/ml), gentamicin (0.035 mg/ml), colistin (850 U/ml), metronidazole (0.215 mg/ml), vancomycin (0.045 mg/ml) and cefaclor (0.3 mg/ml) for 7 days, followed by three days of cefaclor alone. These antibiotics disrupt the resident microbiota and induce susceptibility to infection with Clostridium difficile. On the day of infection, antibiotic pre-treatment was ceased and mice were switched to plain drinking water prior to infection with a ribotype 027 C. difficile strain (M7404) at a dose of 10^5 spores/mouse by oral gavage. Eight hours post-infection, mice were orally administered 100 ul of the respective treatments, followed by the immediate addition of the treatment to the drinking water. The treatments were replenished fresh daily. The mice were monitored twice daily for signs of infection and faecal samples were analysed by microbiological techniques for the presence of C. difficile spores. Mice were humanely killed when they reached ethical endpoints, which include 10% acute weight loss (in the first 24 hours) or 15% chronic weight loss.

[4] = system: 6 strains of C. difficile; experiment: Checkerboard assay for antibiotic combinations; format: cell-based, Clostridium difficile; parameters: unit not given here
Description: The three combinations below were tested vs. 6 strains of C. difficile following the experimental protocols and synergy calculations set out in Magi et al. 2015. • Berberine+Metronidazole • Berberine+Vancomycin • Metronidazole+Vancomycin
In accordance with Magi et al. 2015, synergy is calculated using the equation below: ΣFIC=FICA+FICB=MICA (combine)/MICA (alone)+MICB (combine)/MICB (alone)
When ΣFIC≤0.5, synergy is observed.

[5] = system: six strains of C. difficile; experiment: MIC/MBC of compounds against six strains of C. difficile; format: cell-based, Clostridium difficile; details: vs. the six strains
Description: Eleven natural compounds, metronidazole and a positive control, vancomycin, were tested against six strains of C. difficile as shown in Table 4. […] The eleven natural compounds, or combinations, tested were: • 1. […] Matrine • 6. […] Andrographolide • 8. […] The natural compounds, metronidazole and vancomycin were obtained from commercial sources, e.g. Sigma-Aldrich.

[6] = single agent 50 mg/kg, oral and drinking water, infected mice

C=C1CC[C@@H]2[C@](C)(CO)[C@H](O)CC[C@@]2(C)[C@@H]1C/C=C1/C(=O)OC[C@H]1O [Andrographolide]
solubility in ethanol at ambient temperature ([1]; ethanol at ambient temperature): poorly soluble
solubility in hot/boiling ethanol [1]: soluble
solubility in water [1]: almost insoluble

O=C1C=CC2(CCC23C=CC(=O)O3)O1 (stereo not shown) [Anemonin]
solubility in cold water ([1]; cold water): slightly soluble
solubility in hot/boiling ethanol [1]: soluble
solubility in hot/boiling water [1]: soluble

COC(=O)C1=CCCN(C)C1 [Arecoline]
solubility in ethanol [1]: produces a solution
solubility in water [1]: produces a solution

O=C(O)[C@H]1O[C@@H](Oc2cc3oc(-c4ccccc4)cc(=O)c3c(O)c2O)[C@H](O)[C@@H](O)[C@@H]1O [Baicalin]
solubility in N,N-dimethylformamide ([1]; N,N-dimethylformamide): diffluent
solubility in alkaline solution ([1]; alkaline solution, such as sodium bicarbonate, sodium carbonate, sodium hydroxide): soluble
solubility in water [1]: almost insoluble
stability in alkaline environment [2]: unstable

COc1ccc2cc3[n+](cc2c1OC)CCc1cc2c(cc1-3)OCO2 [Berb]
survival time of mice ([3]; either 25 mg/kg or 50 mg/kg): did not increase the survival time
survival D0 ([3]; single agent 25 mg/kg): 100%
survival D1 ([3]; single agent 25 mg/kg): 0%
survival D1½ ([3]; single agent 25 mg/kg): 0%
survival D1¾ ([3]; single agent 25 mg/kg): 0%
survival D2 ([3]; single agent 25 mg/kg): 0%
survival D3 ([3]; single agent 25 mg/kg): 0%
survival D4 ([3]; single agent 25 mg/kg): 0%
survival D1 ([3]; single agent 50 mg/kg): 20%
survival D1½ ([3]; single agent 50 mg/kg): 0%
survival D1¾ ([3]; single agent 50 mg/kg): 0%
survival D2 ([3]; single agent 50 mg/kg): 0%
survival D3 ([3]; single agent 50 mg/kg): 0%
survival D4 ([3]; single agent 50 mg/kg): 0%
survival D0 [3, 6]: 100%
MICBerb (alone) ([4]; Replicate 1): 1024
MICBerb (combine) ([4]; Replicate 1, pair 128, 0.5): 128
MICBerb (alone) ([4]; Replicate 2): 512
MICBerb (combine) ([4]; Replicate 2, pair 128, 0.5): 128

Cc1ncc([N+](=O)[O-])n1CCO [Metronidazole, 2-methyl-5-nitroimidazole-1-ethanol]
mice survived to the end of the experiment (day 4) ([3]; Metronidazole (50 mg/kg) group): 1/5
survival compared to untreated mice ([3]; either 25 mg/kg or 50 mg/kg): no statistical difference in survival
survival D0 ([3]; single agent 25 mg/kg): 100%
survival D1 ([3]; single agent 25 mg/kg): 60%
survival D1½ ([3]; single agent 25 mg/kg): 20%
survival D1¾ ([3]; single agent 25 mg/kg): 20%
survival D2 ([3]; single agent 25 mg/kg): 0%
survival D3 ([3]; single agent 25 mg/kg): 0%
survival D4 ([3]; single agent 25 mg/kg): 0%
survival D1 ([3]; single agent 50 mg/kg): 100%
survival D1½ ([3]; single agent 50 mg/kg): 100%
survival D1¾ ([3]; single agent 50 mg/kg): 100%
survival D2 ([3]; single agent 50 mg/kg): 20%
survival D3 ([3]; single agent 50 mg/kg): 20%
survival D4 ([3]; single agent 50 mg/kg): 20%
survival D0 [3, 6]: 100%
MICMet (alone) ([4]; Replicate 1): 1
MICMet (combine) ([4]; Replicate 1, pair 128, 0.5): 0.5
MICMet (combine) ([4]; Replicate 1, pair 256, 0.25): 0.25
MICMet (combine) ([4]; Replicate 1, pair 256, 0.5): 0.5
MICMet (alone) ([4]; Replicate 2): 2
MICMet (combine) ([4]; Replicate 2, pair 128, 0.5): 0.5
MICMet (combine) ([4]; Replicate 2, pair 256, 0.25): 0.25
MICMet (combine) ([4]; Replicate 2, pair 256, 0.5): 0.5

COc1cc2c(cc1OC)-c1cc3ccc(OC)c(OC)c3c[n+]1CC2 [Palmatine chloride]
solubility in ethanol [1]: slightly soluble
solubility in hot/boiling water [1]: soluble
solubility in water [1]: sparingly soluble

CN[C@H](CC(C)C)C(=O)N[C@H]1C(=O)N[C@@H](CC(N)=O)C(=O)N[C@H]2C(=O)N[C@H]3C(=O)N[C@H](C(=O)N[C@H](C(=O)O)c4cc(O)cc(O)c4-c4cc3ccc4O)[C@H](O)c3ccc(c(Cl)c3)Oc3cc2cc(c3O[C@@H]2O[C@H](CO)[C@@H](O)[C@H](O)[C@H]2O[C@H]2C[C@](C)(N)[C@H](O)[C@H](C)O2)Oc2ccc(cc2Cl)[C@H]1O [Vancomycin]
MBC range [5]: ≥ 1 µg/mL

COC(=O)C1=CCCN(C)C1 [arecoline hydrobromide]
solubility in ethanol [1]: diffluent
solubility in water [1]: diffluent
